Test results from ChEMBL document CHEMBL3352652, “Oleanolic acid analogs as NO, TNF-α and IL-1β inhibitors: synthesis, biological evaluation and docking studies” (Bioorg Med Chem Lett, 2014).
Converted amounts (≈) assume the structure as drawn.

Key:
[1] = Cytotoxicity against mouse J774A1 cells assessed as cell viability by MTT assay relative to control; type: cell-based; conditions: J774.A1
RAW264.7 [2] = assay: Cytotoxicity mouse RAW264.7 cells assessed as cell viability by MTT assay relative to control; type: cell-based
J774.A1 [3] = assay: Inhibition of LPS-induced NO production in mouse J774A1 cells compound preincubated for 1 hr before LPS treatment by Griess reaction; type: functional, cell-based
RAW264.7 [4] = assay: Inhibition of LPS-induced NO production in mouse RAW264.7 cells compound preincubated for 1 hr before LPS treatment by Griess reaction; type: functional, cell-based
RAW264.7 [5] = assay: Inhibition of LPS-induced IL1-beta release in mouse RAW264.7 cells compound preincubated at 20 ug/ml for 1 hr before LPS treatment measured after 6 to 12 hrs by sandwich immunoassay; type: functional
RAW264.7 [6] = assay: Inhibition of LPS-induced TNF-alpha release in mouse RAW264.7 cells compound preincubated at 20 ug/ml for 1 hr before LPS treatment measured after 6 to 12 hrs by sandwich immunoassay; type: functional
J774.A1 [7] = assay: Inhibition of LPS-induced IL1-beta release in mouse J774A1 cells compound preincubated at 20 ug/ml for 1 hr before LPS treatment measured after 6 to 12 hrs by sandwich immunoassay; type: functional
J774.A1 [8] = assay: Inhibition of LPS-induced TNF-alpha release in mouse J774A1 cells compound preincubated at 20 ug/ml for 1 hr before LPS treatment measured after 6 to 12 hrs by sandwich immunoassay; type: functional
J774.A1 [9] = assay: Inhibition of LPS-induced TNF-alpha release in mouse J774A1 cells compound preincubated for 1 hr before LPS treatment measured after 6 to 12 hrs by sandwich immunoassay; type: functional, cell-based
RAW264.7 [10] = assay: Inhibition of LPS-induced TNF-alpha release in mouse RAW264.7 cells compound preincubated for 1 hr before LPS treatment measured after 6 to 12 hrs by sandwich immunoassay; type: functional, cell-based
J774.A1 [11] = assay: Inhibition of LPS-induced IL1-beta release in mouse J774A1 cells compound preincubated for 1 hr before LPS treatment measured after 6 to 12 hrs by sandwich immunoassay; type: functional, cell-based
RAW264.7 [12] = assay: Inhibition of LPS-induced IL1-beta release in mouse RAW264.7 cells compound preincubated for 1 hr before LPS treatment measured after 6 to 12 hrs by sandwich immunoassay; type: functional, cell-based

Question: Which IC50 [1] does the source give for `COC(=O)[C@]12CCC(C)(C)C[C@H]1C1=CC[C@@H]3[C@@]4(C)CCC(=O)C(C)(C)[C@@H]4CC[C@@]3(C)[C@]1(C)CC2` here?
Answer: The IC50 was 82.5 µM.

Question: What about the IC50 (RAW264.7 [2]) of the same compound?
Answer: The IC50 was 79.3 µM.

Question: And the IC50 (J774.A1 [3])?
Answer: Its IC50 is 33.5 µM.

Question: What about the IC50 (RAW264.7 [4]) of the same compound?
Answer: Its IC50 is 31.7 µM.

Question: Which IC50 [1] does the source give for `CC1(C)CC[C@]2(C(=O)O)CC[C@]3(C)C(=CC[C@@H]4[C@@]5(C)CC/C(=N\O)C(C)(C)[C@@H]5CC[C@]43C)[C@@H]2C1` here?
Answer: Its IC50 is 85.5 µM.

Question: And the IC50 (RAW264.7 [2])?
Answer: Its IC50 is 82.4 µM.

Question: And the IC50 (J774.A1 [3])?
Answer: The IC50 was 41.3 µM.

Question: And the IC50 (RAW264.7 [4])?
Answer: The IC50 was 39.2 µM.

Question: Which results are given for `CC1(C)CC[C@]2(C(=O)Cl)CC[C@]3(C)C(=CC[C@@H]4[C@@]5(C)Cc6c([nH]c7ccccc67)C(C)(C)[C@@H]5CC[C@]43C)[C@@H]2C1`?
Answer: IC50 [1]: 89.3 µM; IC50 (RAW264.7 [2]): 86.2 µM; IC50 (J774.A1 [3]): 24.9 µM; IC50 (RAW264.7 [4]): 22.8 µM

Question: With `CC1(C)CC[C@]2(C(=O)NN)CC[C@]3(C)C(=CC[C@@H]4[C@@]5(C)Cc6c([nH]c7ccccc67)C(C)(C)[C@@H]5CC[C@]43C)[C@@H]2C1` as the compound, how does the IC50 [1] read?
Answer: The IC50 was 91 µM.

Question: And the inhibition at 20 µg/mL (RAW264.7 [5])?
Answer: The inhibition at 20 µg/mL was 13.9%.

Question: And the IC50 (RAW264.7 [2])?
Answer: The IC50 was 92.4 µM.

Question: And the IC50 (J774.A1 [3])?
Answer: The IC50 was 17.7 µM.

Question: And the inhibition at 20 µg/mL (RAW264.7 [6])?
Answer: The inhibition at 20 µg/mL was 31.2%.

Question: And the IC50 (RAW264.7 [4])?
Answer: Its IC50 is 16.5 µM.

Question: And the inhibition at 20 µg/mL (J774.A1 [7])?
Answer: Its inhibition at 20 µg/mL is 11.1%.

Question: What about the inhibition at 20 µg/mL (J774.A1 [8]) of the same compound?
Answer: The inhibition at 20 µg/mL was 27.9%.

Question: For `CNC(=O)[C@]12CCC(C)(C)C[C@H]1C1=CC[C@@H]3[C@@]4(C)Cc5c([nH]c6ccccc56)C(C)(C)[C@@H]4CC[C@@]3(C)[C@]1(C)CC2`, which IC50 [1] is on record?
Answer: The IC50 was 91.7 µM.

Question: What about the inhibition at 20 µg/mL (RAW264.7 [5]) of the same compound?
Answer: The inhibition at 20 µg/mL was 13.3%.

Question: What about the IC50 (RAW264.7 [2]) of the same compound?
Answer: Its IC50 is 90.3 µM.

Question: What about the IC50 (J774.A1 [3]) of the same compound?
Answer: The IC50 was 15.9 µM.

Question: And the inhibition at 20 µg/mL (RAW264.7 [6])?
Answer: The inhibition at 20 µg/mL was 43.7%.

Question: What about the IC50 (RAW264.7 [4]) of the same compound?
Answer: Its IC50 is 4.75 µM.

Question: And the inhibition at 20 µg/mL (J774.A1 [7])?
Answer: The inhibition at 20 µg/mL was 11.8%.

Question: And the inhibition at 20 µg/mL (J774.A1 [8])?
Answer: Its inhibition at 20 µg/mL is 40.3%.

Question: Which results are given for `CC1(C)CC[C@]2(C(=O)NC3CCCCC3)CC[C@]3(C)C(=CC[C@@H]4[C@@]5(C)Cc6c([nH]c7ccccc67)C(C)(C)[C@@H]5CC[C@]43C)[C@@H]2C1`?
Answer: IC50 [1]: 97.3 µM; inhibition at 20 µg/mL (RAW264.7 [5]): 37.5%; IC50 (RAW264.7 [2]): 96.4 µM; IC50 (J774.A1 [3]): 10.8 µM; inhibition at 20 µg/mL (RAW264.7 [6]): 47.8%; IC50 (RAW264.7 [4]): 2.66 µM; inhibition at 20 µg/mL (J774.A1 [7]): 31.7%; inhibition at 20 µg/mL (J774.A1 [8]): 51.9%

Question: What does the source list for `CC1(C)CC[C@]2(C(=O)NCc3ccccc3)CC[C@]3(C)C(=CC[C@@H]4[C@@]5(C)Cc6c([nH]c7ccccc67)C(C)(C)[C@@H]5CC[C@]43C)[C@@H]2C1`?
Answer: IC50 [1]: 93.5 µM; IC50 (RAW264.7 [2]): 93.5 µM; IC50 (J774.A1 [3]): 18.4 µM; IC50 (RAW264.7 [4]): 24.1 µM

Question: For `Cc1ccc(C)c(NC(=O)[C@]23CCC(C)(C)C[C@H]2C2=CC[C@@H]4[C@@]5(C)Cc6c([nH]c7ccccc67)C(C)(C)[C@@H]5CC[C@@]4(C)[C@]2(C)CC3)c1`, which IC50 [1] is on record?
Answer: Its IC50 is 84.7 µM.

Question: And the IC50 (RAW264.7 [2])?
Answer: The IC50 was 83.2 µM.

Question: What about the IC50 (J774.A1 [3]) of the same compound?
Answer: Its IC50 is 29.4 µM.

Question: What about the IC50 (RAW264.7 [4]) of the same compound?
Answer: The IC50 was 23.2 µM.

Question: What does the source list for `Cc1ccc(NC(=O)[C@]23CCC(C)(C)C[C@H]2C2=CC[C@@H]4[C@@]5(C)Cc6c([nH]c7ccccc67)C(C)(C)[C@@H]5CC[C@@]4(C)[C@]2(C)CC3)cc1`?
Answer: IC50 [1]: 83.5 µM; IC50 (RAW264.7 [2]): 80.4 µM; IC50 (J774.A1 [3]): 26.1 µM; IC50 (RAW264.7 [4]): 22.6 µM

Question: Which results are given for `CC1(C)CC[C@]2(C(=O)Nc3ccc(Br)cc3)CC[C@]3(C)C(=CC[C@@H]4[C@@]5(C)Cc6c([nH]c7ccccc67)C(C)(C)[C@@H]5CC[C@]43C)[C@@H]2C1`?
Answer: IC50 [1]: 87 µM; IC50 (RAW264.7 [2]): 85.3 µM; IC50 (J774.A1 [3]): 27.4 µM; IC50 (RAW264.7 [4]): 25.4 µM

Question: Which results are given for `CC1(C)CC[C@]2(C(=O)O)CC[C@]3(C)C(=CC[C@@H]4[C@@]5(C)Cc6c([nH]c7ccccc67)C(C)(C)[C@@H]5CC[C@]43C)[C@@H]2C1`?
Answer: IC50 [1]: 83.7 µM; IC50 (RAW264.7 [2]): 80.2 µM; IC50 (J774.A1 [3]): 21 µM; IC50 (RAW264.7 [4]): 18.8 µM

Question: With `CC(=O)O[C@H]1CC[C@]2(C)[C@H]3CC=C4[C@@H]5CC(C)(C)CC[C@]5(C(=O)O)CC[C@@]4(C)[C@]3(C)CC[C@H]2C1(C)C` [ACETYL OLEANOLIC ACID] as the compound, how does the IC50 [1] read?
Answer: Its IC50 is 80.3 µM.

Question: What about the inhibition at 20 µg/mL (RAW264.7 [5]) of the same compound?
Answer: The inhibition at 20 µg/mL was 22.8%.

Question: And the IC50 (RAW264.7 [2])?
Answer: The IC50 was 79.2 µM.

Question: What about the IC50 (J774.A1 [3]) of the same compound?
Answer: Its IC50 is 16.8 µM.

Question: What about the inhibition at 20 µg/mL (RAW264.7 [6]) of the same compound?
Answer: The inhibition at 20 µg/mL was 38.7%.

Question: What about the IC50 (RAW264.7 [4]) of the same compound?
Answer: Its IC50 is 13.8 µM.

Question: And the inhibition at 20 µg/mL (J774.A1 [7])?
Answer: Its inhibition at 20 µg/mL is 21.1%.

Question: What about the inhibition at 20 µg/mL (J774.A1 [8]) of the same compound?
Answer: Its inhibition at 20 µg/mL is 33.1%.

Question: With `COc1cc(/C=C/C(=O)CC(=O)/C=C/c2ccc(O)c(OC)c2)ccc1O` [CURCUMIN] as the compound, how does the IC50 (J774.A1 [3]) read?
Answer: The IC50 was 18.5 µM.

Question: And the IC50 (J774.A1 [9])?
Answer: Its IC50 is 2.08 µg/mL (≈ 5.65 µM).

Question: What about the IC50 (RAW264.7 [10]) of the same compound?
Answer: The IC50 was 1.25 µg/mL (≈ 3.39 µM).

Question: What about the IC50 (J774.A1 [11]) of the same compound?
Answer: Its IC50 is 24.8 µg/mL (≈ 67.4 µM).

Question: What about the IC50 (RAW264.7 [12]) of the same compound?
Answer: The IC50 was 6.44 µg/mL (≈ 17.5 µM).

Question: What does the source list for `C[C@@H]1C[C@H]2[C@@H]3CCC4=CC(=O)C=C[C@]4(C)[C@@]3(F)[C@@H](O)C[C@]2(C)[C@@]1(O)C(=O)CO` [DEXAMETHASONE]?
Answer: IC50 (J774.A1 [9]): 0.165 µg/mL (≈ 0.42 µM); IC50 (RAW264.7 [10]): 0.016 µg/mL (≈ 0.0408 µM); IC50 (J774.A1 [11]): 9.09 µg/mL (≈ 23.2 µM); IC50 (RAW264.7 [12]): 1.84 µg/mL (≈ 4.69 µM)

Question: Which IC50 (J774.A1 [3]) does the source give for `COC(=O)[C@@H](N)CCCNC(=N)N[N+](=O)[O-]` [L-NAME] here?
Answer: The IC50 was 73.2 µM.

Question: What does the source list for `CC1(C)CC[C@]2(C(=O)O)CC[C@]3(C)C(=CC[C@@H]4[C@@]5(C)CC[C@H](O)C(C)(C)[C@@H]5CC[C@]43C)[C@@H]2C1` [OLEANOLIC_ACID]?
Answer: IC50 [1]: 87.2 µM; IC50 (RAW264.7 [2]): 89.1 µM; IC50 (J774.A1 [3]): 35.2 µM; IC50 (RAW264.7 [4]): 41.7 µM

Question: Which IC50 [1] does the source give for `CC1(C)CC[C@]2(C(=O)O)CC[C@]3(C)C(=CC[C@@H]4[C@@]5(C)CCC(=O)C(C)(C)[C@@H]5CC[C@]43C)[C@@H]2C1` [OLEANONIC ACID] here?
Answer: Its IC50 is 87.7 µM.

Question: What about the IC50 (RAW264.7 [2]) of the same compound?
Answer: Its IC50 is 89.6 µM.

Question: What about the IC50 (J774.A1 [3]) of the same compound?
Answer: The IC50 was 38.8 µM.

Question: What about the IC50 (RAW264.7 [4]) of the same compound?
Answer: Its IC50 is 38.5 µM.
